The text below walks through data of ChEMBL document CHEMBL3045976, “Synthesis of biphenyl derivatives as ACE and -amylase inhibitors” (Med Chem Res, 2013).

Molecules are shown by their SMILES. Activity calls are given as the source filed them. The rule behind the calls is not given here.

Chain of Alpha amylase (Homo sapiens) (P0DUB6 whole entry, looked up): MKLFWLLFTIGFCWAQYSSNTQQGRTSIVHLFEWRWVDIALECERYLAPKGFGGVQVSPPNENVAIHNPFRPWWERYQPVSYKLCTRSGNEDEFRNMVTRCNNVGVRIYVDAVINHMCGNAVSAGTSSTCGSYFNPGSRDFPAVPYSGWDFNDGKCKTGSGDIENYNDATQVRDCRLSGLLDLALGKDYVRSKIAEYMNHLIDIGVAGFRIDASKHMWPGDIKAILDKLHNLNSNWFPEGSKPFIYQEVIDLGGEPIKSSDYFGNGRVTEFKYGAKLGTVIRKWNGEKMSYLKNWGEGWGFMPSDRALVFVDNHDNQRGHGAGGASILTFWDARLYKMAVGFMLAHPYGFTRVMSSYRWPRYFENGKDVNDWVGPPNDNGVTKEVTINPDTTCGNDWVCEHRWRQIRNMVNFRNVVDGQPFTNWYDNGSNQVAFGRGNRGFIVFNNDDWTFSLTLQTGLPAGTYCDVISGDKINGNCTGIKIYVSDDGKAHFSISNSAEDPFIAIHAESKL

The first assay concerns the target Alpha amylase (Homo sapiens) (UniProt P0DUB6). In words: Inhibition of alpha-amylase (unknown origin) using starch as substrate at 100 to 500 ug incubated for 10 min prior to substrate addition measured after 15 min by DNSA method relative to control.
As to `Cc1nnc(-c2ccccc2-c2ccc(Cn3cncn3)cc2)o1`, the inhibition (usually the change of the read-out against control, counted positive when it falls) was “inactive”. Turning to `Cc1nnc(-c2ccccc2-c2ccc(CN3C(=O)CSC3=O)cc2)o1`, the inhibition entry was “inactive”.

For `Cc1nnc(-c2ccccc2-c2ccc(CN3CCN(C)CC3)cc2)o1`, the inhibition result was “inactive”. `c1ccc(-c2nnn[nH]2)c(-c2ccc(CN3CCOCC3)cc2)c1`: the inhibition result is “inactive”.

Turning to `Cc1nnc(-c2ccccc2-c2ccc(CN3CCOCC3)cc2)o1`, the inhibition result was “inactive”. Regarding `Cc1nnc(-c2ccccc2-c2ccc(CN3CCN(CCOCCO)CC3)cc2)o1`, the inhibition result was “inactive”. In the case of `Cc1nnc(-c2ccccc2-c2ccc(CN3CCC(C(=O)O)CC3)cc2)o1`, the inhibition result was “inactive”. Turning to `Cc1nnc(-c2ccccc2-c2ccc(Cn3ccnc3)cc2)o1`, the inhibition result was “inactive”.

Consider `Cc1nnc(-c2ccccc2-c2ccc(CN3CCNCC3)cc2)o1`, for which the inhibition result was “inactive”. Consider `O=C(O)C1CCN(Cc2ccc(-c3ccccc3-c3nnn[nH]3)cc2)CC1`, for which the inhibition entry was “inactive”.

The target of another assay is Angiotensin-converting enzyme (Homo sapiens) (UniProt P12821). In words: Inhibition of ACE (unknown origin) using Hippuryl-His-Leu as substrate at 10 ug incubated for 10 min prior to substrate addition measured after 45 min by spectrophotometric analysis relative to control.
Chain of Angiotensin-converting enzyme (Homo sapiens) (P12821 whole entry): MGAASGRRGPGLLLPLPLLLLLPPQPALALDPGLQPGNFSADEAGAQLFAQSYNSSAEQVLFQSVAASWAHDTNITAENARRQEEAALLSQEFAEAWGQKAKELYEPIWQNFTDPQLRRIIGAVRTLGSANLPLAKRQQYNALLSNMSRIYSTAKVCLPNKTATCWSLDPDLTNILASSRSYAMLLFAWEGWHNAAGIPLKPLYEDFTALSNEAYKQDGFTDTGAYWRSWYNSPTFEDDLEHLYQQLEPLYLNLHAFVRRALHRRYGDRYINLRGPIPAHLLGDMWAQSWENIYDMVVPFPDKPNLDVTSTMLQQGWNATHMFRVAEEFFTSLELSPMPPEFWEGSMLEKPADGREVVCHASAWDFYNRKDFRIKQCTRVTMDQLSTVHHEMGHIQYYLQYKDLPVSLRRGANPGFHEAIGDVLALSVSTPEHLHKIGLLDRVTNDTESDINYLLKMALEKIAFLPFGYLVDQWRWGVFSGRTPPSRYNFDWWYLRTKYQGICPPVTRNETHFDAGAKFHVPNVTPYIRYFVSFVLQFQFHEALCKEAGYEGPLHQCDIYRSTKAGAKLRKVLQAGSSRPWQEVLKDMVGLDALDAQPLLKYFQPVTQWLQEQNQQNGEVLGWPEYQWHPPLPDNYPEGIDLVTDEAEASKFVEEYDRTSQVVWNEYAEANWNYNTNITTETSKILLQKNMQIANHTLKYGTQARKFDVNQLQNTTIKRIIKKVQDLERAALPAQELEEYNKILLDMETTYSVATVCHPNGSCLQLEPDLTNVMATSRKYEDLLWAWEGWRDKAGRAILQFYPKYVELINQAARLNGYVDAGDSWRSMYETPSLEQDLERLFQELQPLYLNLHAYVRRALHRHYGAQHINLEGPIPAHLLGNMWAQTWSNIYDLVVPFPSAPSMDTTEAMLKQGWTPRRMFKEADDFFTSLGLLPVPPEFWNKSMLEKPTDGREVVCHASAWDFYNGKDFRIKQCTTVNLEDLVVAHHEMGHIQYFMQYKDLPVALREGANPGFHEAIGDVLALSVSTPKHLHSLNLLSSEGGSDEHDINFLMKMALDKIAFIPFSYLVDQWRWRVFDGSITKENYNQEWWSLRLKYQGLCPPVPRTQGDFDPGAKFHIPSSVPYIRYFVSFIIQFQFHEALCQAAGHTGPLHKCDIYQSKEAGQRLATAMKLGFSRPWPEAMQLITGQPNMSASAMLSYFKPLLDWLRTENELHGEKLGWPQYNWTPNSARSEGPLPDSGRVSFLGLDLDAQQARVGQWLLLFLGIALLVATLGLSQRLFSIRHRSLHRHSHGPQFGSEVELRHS
`c1ccc(-c2nnn[nH]2)c(-c2ccc(CN3CCNCC3)cc2)c1` yielded an inhibition of 83%.

`CN1CCN(Cc2ccc(-c3ccccc3-c3nnn[nH]3)cc2)CC1`: the inhibition worked out at 92%. On to `c1ccc(-c2nnn[nH]2)c(-c2ccc(Cn3ccnc3)cc2)c1`, for which the inhibition is 80%. As to `c1ccc(-c2nnn[nH]2)c(-c2ccc(Cn3cncn3)cc2)c1`, the inhibition was determined as 80%.

For another assay the target is unchanged. The assay is described as follows: Inhibition of ACE (unknown origin) using Hippuryl-His-Leu as substrate at 1 to 10 ug incubated for 10 min prior to substrate addition measured after 45 min by spectrophotometric analysis relative to control.
`Cc1nnc(-c2ccccc2-c2ccc(Cn3cncn3)cc2)o1`: the inhibition result was “inactive”. Turning to `Cc1nnc(-c2ccccc2-c2ccc(CN3C(=O)CSC3=O)cc2)o1`, the inhibition result is “inactive”. As for `O=C1CSC(=O)N1Cc1ccc(-c2ccccc2-c2nnn[nH]2)cc1`, the inhibition entry was “inactive”.

Take `Cc1nnc(-c2ccccc2-c2ccc(CN3CCN(C)CC3)cc2)o1`: the inhibition result was “inactive”. Turning to `c1ccc(-c2nnn[nH]2)c(-c2ccc(CN3CCOCC3)cc2)c1`, the inhibition result was “inactive”.

Consider `Cc1nnc(-c2ccccc2-c2ccc(CN3CCOCC3)cc2)o1`, for which the inhibition result is “inactive”. With `OCCOCCN1CCN(Cc2ccc(-c3ccccc3-c3nnn[nH]3)cc2)CC1`, the inhibition entry is “inactive”. With `Cc1nnc(-c2ccccc2-c2ccc(CN3CCN(CCOCCO)CC3)cc2)o1`, the inhibition entry is “inactive”.

Take `Cc1nnc(-c2ccccc2-c2ccc(CN3CCC(C(=O)O)CC3)cc2)o1`: the inhibition result is “inactive”. As for `Cc1nnc(-c2ccccc2-c2ccc(Cn3ccnc3)cc2)o1`, the inhibition result is “inactive”. On to `Cc1nnc(-c2ccccc2-c2ccc(CN3CCNCC3)cc2)o1`, for which the inhibition result is “inactive”. Turning to `O=C(O)C1CCN(Cc2ccc(-c3ccccc3-c3nnn[nH]3)cc2)CC1`, the inhibition result was “inactive”.
